Test results taken from US20240407361A1, “ORGANOSULFUR COMPOUNDS AS PLANT BIOSTIMULANTS” (AHV International B.V., priority 2021, published 2024).

Columns and labels:
[1] = system: Lettuce Lactuca sativa “volare”; assay: Organosulfur compounds on lettuce, seed drench (Example 9); assay type: in vivo; conditions: for Added harvest (weight) per plant compared to control (%) / Root formation (%) compared to control / Relative fresh weight/plant compared to control (%): seed drench, 1000× diluted emulsion; for Root formation (%) compared to control: control = 100; for Relative fresh weight/plant compared to control (%): control = emulsifier solution = 100; for Harvest: Fresh weight/plant: seeds drenched 10 minutes in 1000× diluted emulsion, 21 °C
Protocol: (§1) Experimental design. The bio-stimulatory effects of organosulfur compounds was tested on lettuce and sweet pepper (Capsicum annuum “Ritmico”). The tested compounds include di-n-propyl disulfide (GAS 629-19-6), di-n-propyl thiosulfonate (i.e., PTSO, CAS 1113-13-9), di-methyl thiosulfonate (GAS 2949-92-0), and di-phenyl thiosulfonate (Gas 1212-08-4). Di-methyl thiosulfonate and di-phenyl thiosulfonate were ordered from Adrich-Sigma. PTSO was purified as described in example 1. In order to obtain a stable and homogenous emulsion, the compounds were dissolved into an emulsifier solution (table 25) to assure that the crops are supplied with the defined solution. […] As examples herein, “PTSO Composition 5.2” refers to an agricultural composition comprising 5.2% PTSO and further comprises 59% emulsifier (propylene glycol and glyceryl polyethyleneglycol ricinoleate). “PTSO composition 5.2 Yuka” in an agricultural composition comprising 5.2% PTSO and 90.2% Yuka extract. “PTSO composition 5.2 Tween” in an agricultural composition comprising 5.2% PTSO, 30.1% Tween, 30.1% DMSO and 30% water.
(§2) The dosage of the test compounds was standardized on base of the molar dosage and the same molar dosage was administered as PTSO. Emulsions were prepared by adding the required amount of the compounds as indicated in table 25 in 100 ml volumes of 50% tween 80 and 50 ml DMSO. Hereafter, the volumes were supplemented to a final volume of 250 ml with the same mixture and incubation took place at an orbital shaker at 37° C. (30 minutes, 250 rpm).
Before seeding, the seeds of lettuce were drenched into 1000× diluted emulsions as indicated in table 25 and incubated for 10 minutes. Each treatment was performed in 4-fold. In table 26 the growth settings of lettuce and sweet peppers are summarized and in table 27 a summary of the realized growth conditions and crop harvest is presented of lettuce.

[2] = system: sweet pepper (Capsicum annuum “Ritmico”); assay: Organosulfur compounds on sweet pepper, drip (Example 9); assay type: in vivo; conditions: no fruits yet, preliminary
Protocol: as §1, §2

SMILES	Added harvest (weight) per plant compared to control (%) [1]	Root formation (%) compared to control [1]	Relative fresh weight/plant compared to control (%) [1]	Harvest: Fresh weight/plant [1]	Size increase over control (%) [2]
CSS(C)(=O)=O [Di-methyl thiosulfonate, di-methyl thiosulfonate]	20%	115%	120%	1.96	6.1%
O=S(=O)(Sc1ccccc1)c1ccccc1 [Di-phenyl thiosulfonate, di-phenyl thiosulfonate]	3%	93.9%	103%	1.68	2.8%
CCCSSCCC [Di-propyl disulfide]	10%	109%	110%	1.80	2.8%
CCCSS(=O)(=O)CCC [PTSO, di-n-propyl thiosulfonate]	13%	110%	113%	1.84	4.2%
